Entries after “also recorded” stand apart in the source; their conditions may differ.
Columns and labels:
HDAC6 [1] = molecular target: HDAC6 (Mus musculus (Mouse), UniProt Q9Z2V5); assay: Ac-tubulin immunoblotting of tissues (HDAC6 inhibition in hypothalamus and brain regions); type: in vivo, mice; settings: for HDAC6 inhibition in other brain regions: cerebrum, frontal lobe, temporal lobe, brainstem; for HDAC6 inhibition in the hypothalamus: mouse, in vivo
DIO mice [2] = assay: Chronic treatment of DIO mice (body weight, food intake, DEXA, glucose homeostasis); type: in vivo; settings: for body weight: 3 weeks i.p., ricolinostat 50 mg/kg, bavarostat 10 mg/kg, citarinostat 25 mg/kg; for food intake: 3 weeks treatment
Method: DIO mice were treated with ACY775 (10 mg/kg/day, i.p.) for 3 weeks. Daily body weight (g) of DIO mice treated with vehicle (n=17) or ACY775 (n=17) during 3 weeks of treatment was determined. Daily food intake (g) during 3 weeks of vehicle or ACY775 treatment was assessed. 24 hours' food intake per mouse during the first week of vehicle or ACY775 treatment was determined. Serum leptin (ng/ml) levels after 3 weeks of vehicle (n=24) or ACY775 (n=24) treatment was assessed. Lean mass (g), fat mass (g) and fat percentage (%) after 3 weeks of vehicle (n=17) or ACY775 (n=17) treatment measured by Dual-energy X-ray absorptiometry (DEXA) scan. DEXA scans were performed in two different cohorts. Glucose tolerance test (GTT) after 1 week of vehicle (n=33) or ACY775 (n=26) treated DIO mice was assessed. Area of curve (AOC) analysis for GTT was performed. Blood glucose (mg/dl) levels after 1 week of vehicle (n=17) or ACY775 (n=16) were assessed in treated DIO mice. Insulin tolerance test (ITT) was performed after 2 weeks of vehicle (n=31) or ACY775 (n=21) treatment of DIO mice. Serum insulin (ng/ml) levels were measured after 3 weeks of vehicle (n=22) or ACY775 (n=21) in treated DIO mice. A homeostatic model assessment of insulin resistance (HOMA-IR) was analyzed after 3 weeks of vehicle (n=14) or ACY775 (n=13) treated DIO mice.
Food intake was analyzed hourly until 3:00 am. […] DEXA scans were performed in two different cohorts.
DIO mice then were treated with ricolinostat (50 mg/kg, i.p.) for 3 weeks. Daily body weight (g), daily food intake (g), serum leptin (ng/ml) levels after 3 weeks of vehicle (n-8) or ricolinostat (n=8) treatment, lean mass (g); fat mass and fat percentage (%) after 3 weeks of vehicle (n=16) or ricolinostat (n=17) treatment measured by DEXA scan were determined.
Blood glucose (mg/dl) levels were measured after 1 week of vehicle (n=16) or ricolinostat (n=16) treated DIO mice. GTT after 1 week of vehicle (n=17) or ricolinostat (n=16) treatment of DIO mice was assessed. AOC analysis for GTT was performed. ITT after 2 weeks of vehicle (n=17) or ricolinostat (n=16) treated DIO mice was measured. Serum insulin (ng/ml) levels after 3 weeks of vehicle (n=8) or ricolinostat (n=8) treatment were measured in DIO mice. Liver sections from 3 weeks of vehicle or ricolinostat treated DIO mice were stained by H&E.
DIO mice then were treated with bavarostat (10 mg/kg, i.p.) for 3 weeks and daily body weight (g) of DIO mice treated with Veh (n=9) or bavarostat (n=9) measured during the three weeks of treatment period. Daily food intake (g) during 3 weeks of Veh or bavarostat treatment was also measured.
ACY1083 was administered to DIO mice as described in Example 3.

[3] = tested on: ACY775-responsive DMH neurons; assay: Chemogenetic (hM3Dq) activation of ACY775-responsive DMH neurons; type: in vivo; settings: ACY775-induced hM3Dq TRAP2 DIO mice
Method: Next, the ACY775-responsive DMH neurons were chemogenically activated to investigate whether activation of these neurons would be sufficient to reduce the food intake and the bodyweight. Adeno-associated virus (AAV) carrying Cre-dependent hM3Dq-DREADD fused to mCherry transgene (AAV-DIO-hM3Dq-mCherry) was injected bilaterally into the DMH of TRAP2 DIO mice. Four weeks after injections, a single dose of ACY775 (10 mg/kg, i.p.) or vehicle was injected to induce c-fos expression. Subsequently, 4-OHT injection was performed after 5 h to activate c-fos driven Cre in the fasted DIO mice. The mCherry signal was expressed only in ACY775-treated TRAP2 DIO mice and was absent in vehicle-treated TRAP2 DIO mice.
Next, both AAV-DIO-hM3Dq-mCherry- and ACY775-injected, and vehicle-treated TRAP2 DIO mice with saline were treated for 3 days and with clozapine N-oxide (CNO) for 4 days. […] The blood glucose levels at the end of saline and CNO treatment was also measured. […] Blood glucose lowering effect of CNO was absent compared in Veh-induced TRAP2 DIO mice and in all the saline-treated mice.

[4] = in vivo; cited from earlier work
HDAC6-KO DIO mice = assay: Chronic treatment of DIO WT versus HDAC6 KO mice; type: in vivo; settings: DIO mice, 3 weeks; ACY775 10, ACY738 50, Tubastatin A 25 mg/kg/day i.p.
[5] = Brain/plasma ratio and brain or hypothalamus penetration; settings: in vivo
DIO mice [6] = assay: Acute leptin co-treatment in DIO mice (body weight, food intake 15 h); type: in vivo; settings: for body weight, agent alone: ACY775 10 mg/kg, ricolinostat 25 mg/kg
Method: DIO mice were pretreated with ACY775 (10 mg/kg/day, i.p.) or vehicle for 3 days, which was followed by co-treatment with ACY775 (or vehicle) and leptin (1 mg/kg, i.p.) (or saline) (n=9 for each group), % change in body weight 15 h after leptin treatment, food intake (g) during the 15 h period after leptin treatment. The results in were reproduced in two independent experiments.
Diet induced obese (DIO) mice were pretreated with ACY775 (10 mg/kg/day, i.p.) or vehicle for 3 days, which was followed by co-treatment with ACY775 (or vehicle) and leptin (1 mg/kg, i.p.) (or saline) (n=9 for each group). Mice were evaluated for % change in body weight 15 h after leptin treatment, and food intake (g) during the 15 h period after leptin treatment.
DIO mice were pretreated with ricolinostat (25 mg/kg/day, i.p.) or vehicle for 3 days, which was followed by co-treatment with ricolinostat (or vehicle) and leptin (1 mg/kg, i.p.) (or saline) (n=32 for each group). Change in body weight 15 h after leptin treatment, and food intake (g) during the 15 h period after leptin treatment were determined. The results were reproduced in two independent experiments.

HDAC6 [7] = assay: Ac-tubulin immunoblotting in HEK293 cells; type: cell-based
p-STAT3^Tyr705 = assay: Leptin-stimulated hypothalamic STAT3 Tyr705 phosphorylation in DIO mice; type: in vivo; settings: 45 minutes after leptin 1 mg/kg i.p.
Method: DIO mice were pretreated with ACY775 (10 mg/kg/day, i.p.) or vehicle for 3 days, which was followed by a last injection of ACY775 (or vehicle) in the morning of fourth day. 6 hours later mice were injected with saline or leptin (1 mg/kg, i.p.) and hypothalamus were extracted after 45 minutes following the leptin injection. Representative immunoblots for STAT3^Tyr705 phosphorylation and total STAT3 from the hypothalamus. Quantification of the ratio of p-STAT3^Tyr705 to total-STAT3 signal in the immunoblots. The results were reproduced in three independent experiments. The results were analyzed hourly.
DIO mice were pretreated with ACY775 (10 mg/kg/day, i.p.) or vehicle for 3 days, which was followed by a last injection of ACY775 (or vehicle) in the morning of fourth day. 6 hours later mice were injected with saline or leptin (1 mg/kg, i.p.) and the hypothalamus were extracted after 45 minutes following the leptin injection.
6 hours later mice were injected with saline or leptin (1 mg/kg, i.p.) and hypothalamus were extracted after 45 minutes following the leptin injection. Immunoblots for STAT3^Tyr705 phosphorylation and total STAT3 from the hypothalamus were made to quantify the ratio of p-STAT3^Tyr705 to total-STAT3 signal in the immunoblots. The results were reproduced in two independent experiments.
DIO mice were pretreated with ricolinostat (50 mg/kg/day, i.p.) or vehicle 3 days, which was followed by a last injection of ricolinostat (or vehicle) in the morning of fourth day. 6 hours later mice were injected with saline or leptin (1 mg/kg, i.p.) and the hypothalamus were extracted after 45 minutes following the leptin injection. Immunoblots were performed for STAT3^Tyr705 phosphorylation and total STAT3 from the hypothalamus. The ratio of p-STAT3^Tyr705 to total STAT3 signal in the immunoblots was quantified.

Sequence of HDAC6 (Mus musculus (Mouse), UniProt Q9Z2V5) (Q9Z2V5 whole entry): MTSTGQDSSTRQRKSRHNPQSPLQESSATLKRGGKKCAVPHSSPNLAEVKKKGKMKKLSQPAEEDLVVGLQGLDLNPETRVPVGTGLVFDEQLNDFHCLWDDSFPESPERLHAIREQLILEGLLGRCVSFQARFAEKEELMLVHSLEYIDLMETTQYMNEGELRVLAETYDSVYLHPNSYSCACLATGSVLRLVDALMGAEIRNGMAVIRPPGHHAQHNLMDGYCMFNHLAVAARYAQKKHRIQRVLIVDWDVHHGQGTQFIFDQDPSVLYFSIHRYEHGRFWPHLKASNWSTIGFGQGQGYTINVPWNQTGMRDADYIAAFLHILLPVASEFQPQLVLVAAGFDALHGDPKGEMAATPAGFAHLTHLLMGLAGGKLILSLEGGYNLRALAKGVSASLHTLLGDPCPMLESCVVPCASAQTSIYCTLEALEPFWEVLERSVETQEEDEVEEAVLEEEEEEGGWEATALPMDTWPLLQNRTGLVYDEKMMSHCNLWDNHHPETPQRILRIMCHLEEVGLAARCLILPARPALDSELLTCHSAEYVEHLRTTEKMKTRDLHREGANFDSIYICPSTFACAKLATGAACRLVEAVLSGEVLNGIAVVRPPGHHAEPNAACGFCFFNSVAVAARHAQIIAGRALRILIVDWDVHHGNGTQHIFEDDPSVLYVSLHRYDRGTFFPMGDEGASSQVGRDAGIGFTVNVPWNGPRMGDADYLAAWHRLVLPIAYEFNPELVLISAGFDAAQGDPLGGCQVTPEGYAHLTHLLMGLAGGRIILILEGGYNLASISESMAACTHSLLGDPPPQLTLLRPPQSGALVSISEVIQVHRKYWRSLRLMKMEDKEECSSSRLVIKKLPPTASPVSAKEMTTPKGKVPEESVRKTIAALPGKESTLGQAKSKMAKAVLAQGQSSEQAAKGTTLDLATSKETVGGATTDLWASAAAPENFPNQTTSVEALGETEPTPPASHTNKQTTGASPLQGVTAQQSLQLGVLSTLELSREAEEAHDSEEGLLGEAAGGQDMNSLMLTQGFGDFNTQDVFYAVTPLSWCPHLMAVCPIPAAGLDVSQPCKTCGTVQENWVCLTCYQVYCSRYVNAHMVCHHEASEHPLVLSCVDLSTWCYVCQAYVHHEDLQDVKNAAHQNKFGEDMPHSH

Row | Compound | HDAC6 inhibition in other brain regions (HDAC6 [1]) | body weight (DIO mice [2]; DIO mice) | brain penetrance / BBB permeability [4] | penetrance into the hypothalamus [5] | food intake (DIO mice [2]; DIO mice) | body weight, agent alone (DIO mice [6]; 15 h, leptin 1 mg/kg i.p.) | food intake, agent alone (DIO mice [6]; 15 h period) | leptin-stimulated hypothalamic p-STAT3^Tyr705 (p-STAT3^Tyr705) | also measured
1 | CC1CCC(C(C)(C2CCC(C)CC2)C2CCC(C(C)C(C)CCCCC(C)C(C)C)CC2)CC1 (stereo not drawn) [ACY257] | does not inhibit HDAC6 in other brain regions | as effective as ACY775 in reducing body weight | – | – | – | – | – | – | –
2 | C[N+]1([O-])CCN(C2=Nc3cc(Cl)ccc3Nc3ccccc32)CC1 [CNO, clozapine N-oxide] | – | – | – | – | – | – | – | – | blood glucose levels [3]: significantly decreased blood glucose levels; bodyweight and food intake ([3]; CNO 4 days): significant reduction in bodyweight and food intake
3 | CN(Cc1ccc(C(=O)NO)cc1F)CC12CC3CC(CC(C3)C1)C2 [bavarostat, 4-(((((3r,5r,7r)-adamantan-1-yl)methyl)(methyl)amino)methyl)-3-fluoro-N-hydroxybenzamide] | – | statistically significantly effective in reducing food intake and body weight | high brain penetrance | high penetrance of the hypothalamus | Appetite was initially suppressed but then rose over time | – | – | – | body weight, WT versus HDAC6 KO (HDAC6-KO DIO mice): treatment of wild type mice but not HDAC6 Knockout animals with bavarostat caused weight loss; also recorded: equivalent to vehicle in HDAC-6 KO mice; food intake and total body fat mass (summary) (DIO mice [2]; high fat diet induced mice): significant reduction of food intake and total body fat mass
4 | O=C(CCCCCCNC(=O)c1cnc(N(c2ccccc2)c2ccccc2Cl)nc1)NO [citarinostat] | inhibits HDAC6 in other brain regions | not effective in reducing body weight | good brain penetrance | – | – | – | – | – | HDAC6 inhibition in the hypothalamus (HDAC6 [1]): does not show HDAC6 inhibition in the AGP neurons in the hypothalamus; HDAC6 inhibition in the hypothalamus (HDAC6 [1]; listed as Citarinostat): but not in the hypothalamus
5 | O=C(CCCCCCNC(=O)c1cnc(N(c2ccccc2)c2ccccc2)nc1)NO [ricolinostat] | – | minimal decrease in bodyweight for the first couple of days without creating any meaningful or significant decreases; also recorded: does not reduce body weight | poor BBB permeability | neither of which have high penetrance into the hypothalamus | reduced transitionally during the first 2-3 days of treatment but then rebounded | did not decrease the bodyweight | had no effect on the food intake | did not significantly increase STAT3^Tyr705 phosphorylation | body weight, leptin after pre-treatment with inhibitor (DIO mice [6]; 3 days pre-treatment, leptin 1 mg/kg i.p., 15 h): did not reduce the body weight; food intake, leptin together with inhibitor (DIO mice [6]; leptin 1 mg/kg i.p., 15 h period): had no effect on the food intake; brain/plasma ratio [4]: < 0.01; tubulin acetylation (HDAC6 inhibitor activity in cells) (HDAC6 [7]): confirmation of Ricolinstat's HDAC6 inhibitory activity; insulin tolerance test (ITT) (DIO mice [2]; DIO mice): did not improves; hepatic steatosis (H&E liver) (DIO mice [2]; DIO mice, 3 weeks): no decrease in the hepatic steatosis; glucose tolerance test (GTT) (DIO mice [2]; DIO mice, after 1 week): did not improves glucose tolerance; serum insulin levels (DIO mice [2]; DIO mice, after 3 weeks): did not reduce insulin levels
6 | leptin: peptide hormone that serves as the afferent signal in a negative feedback loop regulating food intake and body weight | – | – | – | – | – | did not significantly alter their bodyweight; also recorded: did not change their bodyweight | did not significantly change the food intake | did not significantly increase STAT3^Tyr705 phosphorylation | –

— patent publication US20250213561A1, “SELECTIVE HYPOTHALAMUS PERMEABLE HDAC6 INHIBITORS FOR TREATMENT OF LEPTIN-RESISTANT OBESITY” (The Children’s Medical Center Corporation, priority 2022, published 2025)
